Experimental data published in US9796742B2, “Kinase inhibitors” (Respivert Limited, priority 2012, dated 2017).
Like-named read-outs stand apart in the source and are kept apart here.

Tests used:
GSK3α = GSK3α (Homo sapiens (Human), UniProt P49840); assay: GSK 3α enzyme inhibition (FRET, Z-LYTE; Method 2); assay type: biochemical
Protocol: (§1) The enzyme inhibitory activities of compounds disclosed herein are determined by FRET using synthetic peptides labelled with both donor and acceptor fluorophores (Z-LYTE, Invitrogen Ltd., Paisley, UK).
The inhibitory activities of compounds of the invention against the GSK 3α enzyme isoform (Invitrogen), are evaluated by determining the level of activation/phosphorylation of the target peptide. The GSK3-α protein (500 ng/mL, 2.5 μL) is mixed with the test compound (2.5 μL at either 4 μg/mL, 0.4 μg/mL, 0.04 μg/mL, or 0.004 μg/mL) for 2 hr at RT. The FRET peptide (8 μM, 2.5 μL), which is a phosphorylation target for GSK3α, and ATP (40 μM, 2.5 μL) are then added to the enzyme/compound mixture and the resulting mixture incubated for 1 hr. Development reagent (protease, 5 μL) is added for 1 hr prior to detection in a fluorescence microplate reader (Varioskan® Flash, ThermoFisher Scientific).
(§2) In all cases, the site-specific protease cleaves non-phosphorylated peptide only and eliminates the FRET signal. Phosphorylation levels of each reaction are calculated using the ratio of coumarin emission (donor) over fluorescein emission (acceptor), for which high ratios indicate high phosphorylation and low ratios indicate low phosphorylation levels. The percentage inhibition of each reaction is calculated relative to non-inhibited control and the 50% inhibitory concentration (IC50 value) is then calculated from the concentration-response curve.
This method follows the same steps as Method 1 above, but utilises a shorter period of mixing of the test compound (105 minutes instead of 2 hours) with the GSK3-α protein.

PBMCs [1] = assay: LPS-induced TNFα/IL-8 release in PBMC cells; assay type: cell-based; settings: Homo sapiens, LPS-stimulated PBMCs
Protocol: Peripheral blood mononuclear cells (PBMCs) from healthy subjects are separated from whole blood using a density gradient (Lymphoprep, Axis-Shield Healthcare). The PBMCs are seeded in 96 well plates and treated with compounds at the desired concentration for 2 hours before addition of 1 ng/mL LPS (Escherichia Coli 0111:B4 from Sigma Aldrich) for 24 hours under normal tissue culture conditions (37° C., 5% CO2). The supernatant is harvested for determination of IL-8 and TNFα concentrations by sandwich ELISA (Duo-set, R&D systems) and read on the fluorescence microplate reader (Varioskan® Flash, ThermoFisher Scientific). The concentration at 50% inhibition (IC50) of IL-8 and TNFα production is calculated from the dose response curve.

PBMCs [2] = assay: IL-2 and IFN gamma release in CD3/CD28 stimulated PBMC cells; assay type: cell-based; settings: Homo sapiens
Protocol: PBMCs from healthy subjects are separated from whole blood using a density gradient (Lymphoprep, Axis-Shield Healthcare). Cells are added to a 96 well plate pre-coated with a mixture of CD3/[…] monoclonal antibodies (0.3 μg/mL eBioscience and 3 μg/mL BD Pharmingen respectively). Compound at the desired concentration is then added to the wells and the plate left for 3 days under normal tissue culture conditions. Supernatants are harvested and IL-2 and IFN gamma release determined by Sandwich ELISA (Duo-set, R&D System). The IC50 is determined from the dose response curve.

d-U937 cells = assay: LPS-induced TNFα/IL-8 release in d-U937 cells; assay type: cell-based; settings: Homo sapiens, dU937, LPS-stimulated d-U937 cells
Protocol: U937 cells, a human monocytic cell line, are differentiated to macrophage-type cells by incubation with phorbol myristate acetate (PMA; 100 ng/mL) for 48 to 72 hr. Cells are pre-incubated with final concentrations of test compound for 2 hr and are then stimulated with 0.1 μg/mL of LPS (from E. Coli: O111:B4, Sigma) for 4 hr. The supernatant is collected for determination of TNFα and IL-8 concentrations by sandwich ELISA (Duo-set, R&D systems). The inhibition of TNFα production is calculated as a percentage of that achieved by 10 μg/mL of BIRB796 at each concentration of test compound by comparison against vehicle control. The relative 50% effective concentration (REC50) is determined from the resultant concentration-response curve. The inhibition of IL-8 production is calculated at each concentration of test compound by comparison with vehicle control. The 50% inhibitory concentration (IC50) is determined from the resultant concentration-response curve.

p38 MAPKα = p38 MAPKα (Homo sapiens (Human), UniProt Q16539); assay: p38 MAPKα enzyme inhibition (FRET, Z-LYTE; Method 2); assay type: biochemical
p38 MAPKα, sequence (Q16539 whole entry): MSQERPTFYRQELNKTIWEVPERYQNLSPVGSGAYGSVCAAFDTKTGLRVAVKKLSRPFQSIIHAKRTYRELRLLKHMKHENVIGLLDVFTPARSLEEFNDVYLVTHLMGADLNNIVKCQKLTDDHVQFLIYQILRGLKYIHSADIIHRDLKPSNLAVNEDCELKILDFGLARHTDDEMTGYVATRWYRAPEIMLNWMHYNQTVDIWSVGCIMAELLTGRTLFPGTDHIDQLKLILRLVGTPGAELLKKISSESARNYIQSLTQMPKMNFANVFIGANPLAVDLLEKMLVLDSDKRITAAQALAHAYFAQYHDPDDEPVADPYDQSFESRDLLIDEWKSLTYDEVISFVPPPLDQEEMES
Protocol: as §1
The inhibitory activities of test compounds against the p38 MAPKα isoform (MAPK14: Invitrogen), are evaluated indirectly by determining the level of activation/phosphorylation of the down-stream molecule, MAPKAP-K2. The p38 MAPKα protein (80 ng/mL, 2.5 μL) is mixed with the test compound (2.5 μL of either 4 μg/mL, 0.4 μg/mL, 0.04 μg/mL or 0.004 μg/mL) for 2 hr at RT. […] The mixture is incubated for 1 hr at RT. Development reagent (protease, 5 μL) is added for 1 hr prior to detection in a fluorescence microplate reader (Varioskan® Flash, ThermoFisher Scientific).
Method 2 This method follows the same steps as Method 1 above, but utilises a higher concentration of the p38 MAPKα protein (2.5 μL of 200 ng/mL protein instead of 2.5 μL of 80 ng/mL protein) for mixing with the test compound.
as §2

c-Src = c-Src (Homo sapiens (Human), UniProt P12931); assay: c-Src enzyme inhibition (FRET, Z-LYTE); assay type: biochemical
c-Src, sequence (P12931 whole entry, looked up): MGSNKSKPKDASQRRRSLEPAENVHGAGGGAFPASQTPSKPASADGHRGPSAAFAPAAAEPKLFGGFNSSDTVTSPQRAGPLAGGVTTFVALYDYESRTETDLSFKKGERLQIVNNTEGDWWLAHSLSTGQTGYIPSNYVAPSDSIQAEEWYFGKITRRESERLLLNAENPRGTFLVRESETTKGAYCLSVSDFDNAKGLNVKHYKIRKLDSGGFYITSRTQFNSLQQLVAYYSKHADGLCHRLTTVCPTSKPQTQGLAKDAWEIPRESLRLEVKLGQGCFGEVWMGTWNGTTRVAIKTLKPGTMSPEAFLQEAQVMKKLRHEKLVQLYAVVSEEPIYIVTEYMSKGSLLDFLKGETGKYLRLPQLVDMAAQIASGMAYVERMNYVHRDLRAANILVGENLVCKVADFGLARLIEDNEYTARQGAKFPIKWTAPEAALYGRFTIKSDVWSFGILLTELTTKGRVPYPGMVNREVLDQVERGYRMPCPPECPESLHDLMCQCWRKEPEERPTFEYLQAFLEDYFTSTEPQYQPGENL
Protocol: as §1
(§3) The inhibitory activities of compounds of the invention against c-Src and Syk enzymes (Invitrogen), are evaluated in a similar fashion to that described hereinabove. The relevant enzyme (3000 ng/mL or 2000 ng/mL respectively, 2.5 μL) is incubated with the test compound (either 4 μg/mL, 0.4 μg/mL, 0.04 μg/mL, or 0.004 μg/mL, 2.5 μL each) for 2 hr at RT. The FRET peptides (8 μM. 2.5 μL), and appropriate ATP solutions (2.5 μL, 800 μM for c-Src, and 60 μM ATP for Syk) are then added to the enzymes/compound mixtures and incubated for 1 hr. Development reagent (protease, 5 μL) is added for 1 hr prior to detection in a fluorescence microplate reader (Varioskan® Flash, ThermoFisher Scientific).
as §2

Syk = Syk (Homo sapiens (Human), UniProt P43405); assay: Syk enzyme inhibition (FRET, Z-LYTE); assay type: biochemical
Protocol: as §1, §3, §2

[3] = IL-8, read-out: IC50 Values for Inhibition of Cytokine Release, PBMCs IL-8
[4] = IL-2, read-out: IC50 Values for Inhibition of Cytokine Release, PBMCs IL-2

GSK3α, sequence (P49840 whole entry): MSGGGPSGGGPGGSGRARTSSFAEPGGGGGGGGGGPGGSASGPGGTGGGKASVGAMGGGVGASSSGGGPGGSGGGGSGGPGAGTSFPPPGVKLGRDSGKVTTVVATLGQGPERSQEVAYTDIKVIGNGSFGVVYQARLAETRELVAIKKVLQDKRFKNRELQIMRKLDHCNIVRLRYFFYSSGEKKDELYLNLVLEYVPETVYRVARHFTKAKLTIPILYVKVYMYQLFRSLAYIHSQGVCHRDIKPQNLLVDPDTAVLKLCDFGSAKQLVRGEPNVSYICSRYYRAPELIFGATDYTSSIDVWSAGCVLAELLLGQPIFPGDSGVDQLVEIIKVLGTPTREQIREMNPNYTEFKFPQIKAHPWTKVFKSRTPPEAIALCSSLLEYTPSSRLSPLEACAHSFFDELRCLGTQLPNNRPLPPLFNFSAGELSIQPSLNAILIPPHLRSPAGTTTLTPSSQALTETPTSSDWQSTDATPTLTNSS

| Structure (SMILES) | IC50 (GSK3α) [nM] | IC50 (d-U937 cells; IL-8, read-out: IC50 Values for Inhibition of Cytokine Release, dU937 cells IL-8) [nM] | IC50 (d-U937 cells; TNFα (REC50 relative to BIRB796 per method), read-out: IC50 Values for Inhibition of Cytokine Release, dU937 cells TNFα) [nM] | IC50 (p38 MAPKα) [nM] | IC50 (c-Src) [nM] | IC50 (Syk) [nM] | IC50 (PBMCs [1]; [3]) [nM] | IC50 (PBMCs [2]; [4]) [nM] | IC50 (PBMCs [1]; TNFα, read-out: IC50 Values for Inhibition of Cytokine Release, PBMCs TNFα) [nM] | IC50 (PBMCs [2]; IFNγ, read-out: IC50 Values for Inhibition of Cytokine Release, PBMCs IFNγ) [nM] |
| --- | --- | --- | --- | --- | --- | --- | --- | --- | --- | --- |
| C[Si](C)(C)c1cc(NC(=O)Nc2ccc(Oc3ccnc(Nc4ccccc4)n3)c3ccccc23)n(-c2cccc(CP(C)(C)=O)c2)n1 [Example 35, 1-(1-(3-((Dimethylphosphoryl)methyl)phenyl)-3-(trimethylsilyl)-1H-pyrazol-5-yl)-3-(4-((2-(phenylamino)pyrimidin-4-yl)oxy)naphthalen-1-yl)urea] | 1270 | – | – | – | – | – | 7.6 | 76.8 | – | – |
| COc1cc(Nc2cc(Oc3ccc(NC(=O)Nc4cc(C(C)C)nn4-c4cccc(CP(C)(C)=O)c4)c4ccccc34)ccn2)cc(C(=O)NCCN2CCOCC2)c1 [Example 50, 3-((4-((4-(3-(1-(3-((Dimethylphosphoryl)methyl)phenyl)-3-isopropyl-1H-pyrazol-5-yl)-ureido)naphthalen-1-yl)oxy)pyridin-2-yl)amino)-5-methoxy-N-(2-morpholinoethyl)-benzamide] | 2090 | – | – | 24 | – | – | 1 | 16.1 | – | – |
| CN(CCCO)c1nccc(Oc2ccc(NC(=O)Nc3cc(C(C)(C)C)nn3-c3ccc(P(C)(C)=O)cc3)c3ccccc23)n1 [Example 30, 1-(3-(tert-Butyl)-1-(4-(dimethylphosphoryl)phenyl)-1H-pyrazol-5-yl)-3-(4-((2-((3-hydroxy-propyl)(methyl)amino)pyrimidin-4-yl)oxy)naphthalen-1-yl)urea] | > 10000 | – | – | 27 | 795 | > 1000 | 280 | – | – | – |
| COCCOCCOCCOCCOc1cc(Nc2nccc(Oc3ccc(NC(=O)Nc4cc(C(C)C)nn4-c4cccc(CP(C)(C)=O)c4)c4ccccc34)n2)cc(OC)c1 [Example 52, 1-(4-((2-((3-(2,5,8,11-Tetraoxatridecan-13-yloxy)-5-methoxyphenyl)amino)pyrimidin-4-yl)oxy)naphthalen-1-yl)-3-(1-(3-((dimethylphosphoryl)methyl)phenyl)-3-isopropyl-1H-pyrazol-5-yl)urea] | 1190 | – | – | 18 | 3 | 4 | 3.3 | 11.6 | – | – |
| CC(C)(C)c1cc(NC(=O)Nc2ccc(Oc3ccnc(Nc4ccc(S(F)(F)(F)(F)F)cc4)n3)c3ccccc23)n(-c2ccc(P(C)(C)=O)cc2)n1 [Example 28, 1-(3-(tert-Butyl)-1-(4-(dimethylphosphoryl)phenyl)-1H-pyrazol-5-yl)-3-(4-((2-((4-(Pentafluorothio)phenyl)amino)pyrimidin-4-yl)oxy)naphthalen-1-yl)urea] | > 10000 | – | – | > 1000 | 372 | 884 | 214 | – | – | – |
| COc1cc(Nc2cc(Oc3ccc(NC(=O)Nc4cc(C(C)C)nn4-c4cccc(CP(C)(C)=O)c4)c4ccccc34)ccn2)cc(OCCN2CCOCC2)c1 [Example 51, 1-(1-(3-((Dimethylphosphoryl)methyl)phenyl)-3-isopropyl-1H-pyrazol-5-yl)-3-(4-((2-((3-methoxy-5-(2-morpholinoethoxy)phenyl)amino)pyridin-4-yl)oxy)naphthalen-1-yl)urea] | 2810 | – | – | 58 | 8 | – | 0.5 | 6.1 | – | – |
| CCP(=O)(CC)c1ccc(-n2nc(C(C)(C)C)cc2NC(=O)Nc2ccc(Oc3ccnc(Nc4ccccc4)n3)c3ccccc23)cc1 [Example 22, 1-(3-(tert-Butyl)-1-(4-(diethylphosphoryl)phenyl)-1H-pyrazol-5-yl)-3-(4-((2-(phenylamino)-pyrimidin-4-yl)oxy)naphthalen-1-yl)urea] | 818 | – | – | 67 | 9 | 200 | 32.8 | – | – | – |

Further compounds by falling IC50 (GSK3α), results first:

| IC50 (GSK3α) [nM] | IC50 (d-U937 cells; IL-8, read-out: IC50 Values for Inhibition of Cytokine Release, dU937 cells IL-8) [nM] | IC50 (d-U937 cells; TNFα (REC50 relative to BIRB796 per method), read-out: IC50 Values for Inhibition of Cytokine Release, dU937 cells TNFα) [nM] | IC50 (p38 MAPKα) [nM] | IC50 (c-Src) [nM] | IC50 (Syk) [nM] | Structure (SMILES) | IC50 (PBMCs [1]; [3]) [nM] | IC50 (PBMCs [2]; [4]) [nM] | IC50 (PBMCs [1]; TNFα, read-out: IC50 Values for Inhibition of Cytokine Release, PBMCs TNFα) [nM] | IC50 (PBMCs [2]; IFNγ, read-out: IC50 Values for Inhibition of Cytokine Release, PBMCs IFNγ) [nM] |
| --- | --- | --- | --- | --- | --- | --- | --- | --- | --- | --- |
| 1250 | – | – | 21 | 9 | 7 | CC(C)c1cc(NC(=O)Nc2ccc(Oc3ccnc(Nc4cc(C#N)cc(OCCN5CCOCC5)c4)n3)c3ccccc23)n(-c2cccc(CP(C)(C)=O)c2)n1 [Example 57, 1-(4-((2-((3-cyano-5-(2-morpholinoethoxy)phenyl)amino)pyrimidin-4-yl)oxy)-naphthalen-1-yl)-3-(1-(3-((dimethylphosphoryl)methyl)phenyl)-3-isopropyl-1H-pyrazol-5-yl)urea] | 2.7 | 10.5 | – | – |
| 689 | – | – | 84 | 7 | 12 | CC(C)(C)c1cc(NC(=O)Nc2ccc(Oc3ccnc(Nc4cc(C(=O)NCCN5CCOCC5)cc(C(F)(F)F)c4)n3)c3ccccc23)n(-c2cccc(CP(C)(C)=O)c2)n1 [Example 58, 3-((4-((4-(3-(3-(tert-Butyl)-1-(3-((dimethylphosphoryl)methyl)phenyl)-1H-pyrazol-5-yl)-ureido)naphthalen-1-yl)oxy)pyrimidin-2-yl)amino)-N-(2-morpholinoethyl)-5-(trifluoromethyl)benzamide] | 1.4 | 62.1 | – | 4.8 |
| 16 | 8.6 | 3.6 | – | – | – | COCC(=O)Nc1cc(Oc2ccc(NC(=O)Nc3cc(C(C)(C)C)nn3-c3ccc(P(C)(C)=O)cc3)c3ccccc23)ccn1 [Example 3, N-(4-((4-(3-(3-(tert-Butyl)-1-(4-(dimethylphosphoryl)phenyl)-1H-pyrazol-5-yl)ureido)-naphthalen-1-yl)oxy)pyridin-2-yl)-2-methoxyacetamide] | – | – | 2.5 | – |
